Measurements taken from US20240246964A1 (Arbutus Biopharma Corporation, priority 2021, published 2024).

What was measured:
[1] = target: human PD-L1 (Homo sapiens (Human), UniProt Q9NZQ7); assay: T cell activation luciferase reporter cell culture system (T Cell Activation Assay); type: cell-based; conditions: luciferase reporter assay; PD-L1 aAPC/CHO-K1 cells with PD-1 effector Jurkat T cells
[2] = target: PD-L1 His protein / PD-1 Fc protein (Homo sapiens (Human), UniProt Q9NZQ7); assay: HTRF Assay (PD-1/PD-L1 interaction); type: binding; conditions: PD-L1 His 6 nM, PD-1 Fc 6 nM
PD-L1 His protein / PD-1 Fc protein, sequence (Q9NZQ7 19-238): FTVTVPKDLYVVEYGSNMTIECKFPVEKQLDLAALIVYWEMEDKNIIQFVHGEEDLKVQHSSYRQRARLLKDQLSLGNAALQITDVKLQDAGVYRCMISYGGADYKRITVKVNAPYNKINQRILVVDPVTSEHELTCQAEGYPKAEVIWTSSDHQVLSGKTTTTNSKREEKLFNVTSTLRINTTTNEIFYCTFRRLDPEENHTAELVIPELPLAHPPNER

human PD-L1, sequence (Q9NZQ7 19-290): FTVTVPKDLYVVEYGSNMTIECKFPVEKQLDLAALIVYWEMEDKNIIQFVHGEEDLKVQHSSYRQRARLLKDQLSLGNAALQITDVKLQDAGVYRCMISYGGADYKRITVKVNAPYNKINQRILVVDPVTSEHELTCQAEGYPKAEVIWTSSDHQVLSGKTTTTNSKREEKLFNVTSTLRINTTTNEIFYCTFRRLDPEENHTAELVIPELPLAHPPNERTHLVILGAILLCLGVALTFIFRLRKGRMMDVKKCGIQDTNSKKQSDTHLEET

Row | Structure (SMILES) | EC50 [1] | IC50 [2]
1 | COc1nc(-c2cccc(-c3ccnc(-c4ccc(CNC5CCOCC5)c(OC(F)F)c4)c3Cl)c2Cl)ccc1CN1CC2(C1)CN(C(C)=O)C2 [Example 689, 1-(6-((6-(2-Chloro-3-(3-chloro-2-(3-(difluoromethoxy)-4-(((tetrahydro-2H-pyran-4-yl)amino)methyl)phenyl)pyridin-4-yl)phenyl)-2-methoxypyridin-3-yl)methyl)-2,6-diazaspiro[3.3]heptan-2-yl)ethan-1-one] | 37.4 nM | 3.33 nM
2 | COc1cc(-c2nccc(-c3cccc(-c4ccc(CN5CCC(O)CC5)c(OC)n4)c3Cl)c2Cl)ccc1CN1CC2(CCN(C(C)=O)C2)C1 [Example 693, 1-(2-(4-(3-Chloro-4-(2-chloro-3-(5-((4-hydroxypiperidin-1-yl)methyl)-6-methoxypyridin-2-yl)phenyl)pyridin-2-yl)-2-methoxybenzyl)-2,6-diazaspiro[3.4]octan-6-yl)ethan-1-one] | 26.1 nM | 0.71 nM
3 | COc1nc(-c2cccc(-c3ccnc(-c4cc5c(OC)nc(CN6CC(C)(O)C6)nn5c4)c3Cl)c2Cl)ccc1CNC[C@@H]1CCC(=O)N1 [Example 697, (S)-5-((((6-(2-Chloro-3-(3-chloro-2-(2-((3-hydroxy-3-methylazetidin-1-yl)methyl)-4-methoxypyrrolo[2,1-f][1,2,4]triazin-6-yl)pyridin-4-yl)phenyl)-2-methoxypyridin-3-yl)methyl)amino)methyl)pyrrolidin-2-one] | 120 nM | 6.26 nM
4 | COc1nc(-c2cccc(-c3ccnc(-c4cc(OC)c5nc(CN6CC7(COC7)C6)nn5c4)c3Cl)c2Cl)ccc1CNC1CCN(C(C)=O)CC1 [Example 698, 1-(4-(((6-(3-(2-(2-((2-Oxa-6-azaspiro[3.3]heptan-6-yl)methyl)-8-methoxy-[1,2,4]triazolo[1,5-a]pyridin-6-yl)-3-chloropyridin-4-yl)-2-chlorophenyl)-2-methoxypyridin-3-yl)methyl)amino)piperidin-1-yl)ethan-1-one] | 261 nM | 0.14 nM
5 | COc1cc(-c2nccc(-c3cccc(NC(=O)c4ccc(CNCCO)cn4)c3C)c2Cl)ccc1CNC1CCOCC1 [Example 703, N-(3-(3-Chloro-2-(3-methoxy-4-(((tetrahydro-2H-pyran-4-yl)amino)methyl)phenyl)pyridin-4-yl)-2-methylphenyl)-5-(((2-hydroxyethyl)amino)methyl)picolinamide] | 146 nM | 0.14 nM
6 | COc1cc(-c2nccc(-c3cccc(NC(=O)c4ccc(CNC5CC6(C5)CN(C(C)=O)C6)cn4)c3Cl)c2Cl)ccc1CNC1CC2(C1)CN(C(C)=O)C2 (stereo not shown) [Example 706, 5-(((2-Acetyl-2-azaspiro[3.3]heptan-6-yl)amino)methyl)-N-(3-(2-(4-(((2-acetyl-2-azaspiro[3.3]heptan-6-yl)amino)methyl)-3-methoxyphenyl)-3-chloropyridin-4-yl)-2-chlorophenyl)picolinamide] | 72.6 nM | 0.2 nM
7 | COc1nc(-c2ccnc(-c3cccc4c3CCC[C@@H]4Nc3nc(OC)c(CNC[C@H](C)O)cc3C(F)(F)F)c2Cl)ccc1CNC[C@@H]1CCC(=O)N1 [Example 707, (S)-5-((((3′-Chloro-2′-((S)-5-((5-((((S)-2-hydroxypropyl)amino)methyl)-6-methoxy-3-(trifluoromethyl)pyridin-2-yl)amino)-5,6,7,8-tetrahydronaphthalen-1-yl)-6-methoxy-[2,4′-bipyridin]-5-yl)methyl)amino)methyl)pyrrolidin-2-one] | ≥ 10000 nM | 54.3 nM
8 | COc1nc(-c2cccc(-c3ccnc(-c4cc(OC)c5nc(CNCC(C)(C)O)nn5c4)c3Cl)c2Cl)ccc1CNC1CCN(C(C)=O)CC1 [Example 714, 1-(4-(((6-(2-chloro-3-(3-chloro-2-(2-(((2-hydroxy-2-methylpropyl)amino)methyl)-8-methoxy-[1,2,4]triazolo[1,5-a]pyridin-6-yl)pyridin-4-yl)phenyl)-2-methoxypyridin-3-yl)methyl)amino)piperidin-1-yl)ethan-1-one] | 249 nM | 0.54 nM
9 | COc1cc(-c2ncnc(-c3cccc(-c4ccc(CNC[C@@H]5CCC(=O)N5)c(OC)n4)c3Cl)c2OC)ccc1CNC[C@@H]1CCC(=O)N1 [Example 716, (S)-5-((((6-(2-chloro-3-(5-methoxy-6-(3-methoxy-4-(((((S)-5-oxopyrrolidin-2-yl)methyl)amino)methyl)phenyl)pyrimidin-4-yl)phenyl)-2-methoxypyridin-3-yl)methyl)amino)methyl)pyrrolidin-2-one] | 940 nM | 0.6 nM
10 | COc1nc(-c2ccnc(-c3cccc4c3CCC[C@@H]4Nc3nc(OC)c(CN4CC5(CNC(=O)C5)C4)cc3C(F)(F)F)c2Cl)ccc1CNC[C@@H]1CCC(=O)N1 [Example 720, 2-((6-(((S)-5-(3′-Chloro-6-methoxy-5-(((((S)-5-oxopyrrolidin-2-yl)methyl)amino)methyl)-[2,4′-bipyridin]-2′-yl)-1,2,3,4-tetrahydronaphthalen-1-yl)amino)-2-methoxy-5-(trifluoromethyl)pyridin-3-yl)methyl)-2,6-diazaspiro[3.4]octan-7-one] | ≥ 10000 nM | 34.4 nM
11 | COc1cc(-c2nccc(-c3cccc4c3CCC[C@@H]4Nc3nc(OC)c(CN4CC5(CNC(=O)C5)C4)cc3C(F)(F)F)c2Cl)ccc1CNC[C@@H]1CCC(=O)N1 [Example 724, 2-((6-(((S)-5-(3-Chloro-2-(3-methoxy-4-(((((S)-5-oxopyrrolidin-2-yl)methyl)amino)methyl)phenyl)pyridin-4-yl)-1,2,3,4-tetrahydronaphthalen-1-yl)amino)-2-methoxy-5-(trifluoromethyl)pyridin-3-yl)methyl)-2,6-diazaspiro[3.4]octan-7-one] | ≥ 10000 nM | 585 nM
12 | Cc1c(NC(=O)c2ccc(CNC[C@@H]3CCC(=O)N3)cn2)cccc1-c1ccnc(-c2ccc(CNC[C@@H]3CCC(=O)N3)c(OC(F)F)c2)c1Cl [Example 725, N-(3-(3-Chloro-2-(3-(difluoromethoxy)-4-(((((S)-5-oxopyrrolidin-2-yl)methyl)amino)methyl)phenyl)pyridin-4-yl)-2-methylphenyl)-5-(((((S)-5-oxopyrrolidin-2-yl)methyl)amino)methyl)picolinamide] | 120 nM | 0.53 nM
13 | COc1cc(-c2nccc(-c3cccc(NC(=O)c4ccc(CNC[C@@H]5CCC(=O)N5)cn4)c3C)c2Cl)cc(F)c1CNC[C@@H]1CCC(=O)N1 [Example 726, N-(3-(3-Chloro-2-(3-fluoro-5-methoxy-4-(((((S)-5-oxopyrrolidin-2-yl)methyl)amino)methyl)phenyl)pyridin-4-yl)-2-methylphenyl)-5-(((((S)-5-oxopyrrolidin-2-yl)methyl)amino)methyl)picolinamide] | 48.7 nM | 0.42 nM
14 | COc1cc(-c2nccc(-c3cccc(NC(=O)c4ccc(CNCCO)cn4)c3C)c2Cl)ccc1CNC[C@@H]1CCC(=O)N1 [Example 735, (S)—N-(3-(3-Chloro-2-(3-methoxy-4-((((5-oxopyrrolidin-2-yl)methyl)amino)methyl)phenyl)pyridin-4-yl)-2-methylphenyl)-5-(((2-hydroxyethyl)amino)methyl)picolinamide] | 15.6 nM | 0.03 nM
15 | COc1cc(-c2nccc(-c3cccc(NC(=O)c4ccc(CNC[C@@H]5CCC(=O)N5)cn4)c3C)c2Cl)ccc1CNCCCF [Example 749, (S)—N-(3-(3-Chloro-2-(4-(((3-fluoropropyl)amino)methyl)-3-methoxyphenyl)pyridin-4-yl)-2-methylphenyl)-5-((((5-oxopyrrolidin-2-yl)methyl)amino)methyl)picolinamide] | 461 nM | 0.33 nM
16 | COc1cc(-c2nccc(-c3cccc(NC(=O)c4ccc(CNCCO)cn4)c3Cl)c2Cl)ccc1CNC[C@@H]1CCC(=O)N1 [Example 755, (S)—N-(2-Chloro-3-(3-chloro-2-(3-methoxy-4-((((5-oxopyrrolidin-2-yl)methyl)amino)methyl)phenyl)pyridin-4-yl)phenyl)-5-(((2-hydroxyethyl)amino)methyl)picolinamide] | 4.48 nM | 0.12 nM
17 | CNCc1ccc(C(=O)Nc2cccc(-c3ccnc(-c4ccc(CNC[C@@H]5CCC(=O)N5)c(OC)c4)c3Cl)c2C)nc1 [Example 756, (S)—N-(3-(3-chloro-2-(3-methoxy-4-((((5-oxopyrrolidin-2-yl)methyl)amino)methyl)phenyl)pyridin-4-yl)-2-methylphenyl)-5-((methylamino)methyl)picolinamide] | 63.8 nM | 0.2 nM
18 | COc1cc(-c2nccc(-c3cccc(NC(=O)c4ccc(CNCCO)cn4)c3Cl)c2Cl)ccc1CN1CC2(C1)CN(C(C)=O)C2 [Example 757, N-(3-(2-(4-((6-Acetyl-2,6-diazaspiro[3.3]heptan-2-yl)methyl)-3-methoxyphenyl)-3-chloropyridin-4-yl)-2-chlorophenyl)-5-(((2-hydroxyethyl)amino)methyl)picolinamide] | 86.5 nM | 0.47 nM
19 | COc1nc(-c2cccc(-c3nccc(-c4ccc(CN5CCC(O)CC5)c(OC)n4)c3Cl)c2Cl)ccc1CN1CCC(O)CC1 [Example 759, 1-((3′-Chloro-2′-(2-chloro-3-(5-((4-hydroxypiperidin-1-yl)methyl)-6-methoxypyridin-2-yl)phenyl)-6-methoxy-[2,4′-bipyridin]-5-yl)methyl)piperidin-4-ol] | 16.9 nM | 0.63 nM
20 | COc1nc(-c2cccc(-c3nccc(-c4ccc(CN5CC6(CCN(C(C)=O)C6)C5)c(OC)n4)c3Cl)c2Cl)ccc1CN1CC2(CCN(C(C)=O)C2)C1 [Example 760, 1-(2-((6-(3-(5-((6-Acetyl-2,6-diazaspiro[3.4]octan-2-yl)methyl)-3′-chloro-6-methoxy-[2,4′-bipyridin]-2′-yl)-2-chlorophenyl)-2-methoxypyridin-3-yl)methyl)-2,6-diazaspiro[3.4]octan-6-yl)ethan-1-one] | 19.2 nM | 0.32 nM
